# Legend:
# [1] = at 25° C.; cited from earlier work
# birds = settings: in vivo; cited from earlier work
# mammals [2] = settings: cited from earlier work
# [3] = Evaporation test of spinosad from impregnated paper mats on mat diffusers (HPLC); type: physicochemical; settings: Example 1 mat, initial 80 mgs per mat; for Percentage of Spinosad Evaporated: 8 h
# Description: Paper mats having dimensions of 35 mm (length)×21.5 mm (width)×2.5 mm (thickness) were then gradually impregnated with 0.84-1.70 grams of the above upper phase mixture (depending on its content in spinosad) so as to have approximately 80 mgs of pure spinosad per mat. The mats were left at a temperature of approximately 30° C. for 3 hours during which time most of the ethyl alcohol was evaporated. Next the mats were closed within foil comprising metallized polyethylene terepthalate PET 12 μm/adhesive/PET 35 μm. The mats were allowed to rest for 24 hours to allow for complete spread of the liquid material within the paper. Evaporation tests were then run as follows:
# (§1) The foil was opened and a mat was removed. The mat was checked by HPLC to confirm its spinosad content. As was theoretically expected, 80 mgs of pure spinosad per mat were found. Four mats of this batch were then placed on common mat diffusers having a temperature ranging from 130° C. to 160° C. The amount of spinosad remaining on the mat was checked after each of 2, 4, and 8 hours of diffuser operation.
# as §1, with “the content of spinosad.” for “its spinosad content.”, “11” for “80”, “mats” for “mats of this batch”, “of” for “of diffuser”
# as §1, with “confirm the content of spinosad.” for “confirm its spinosad content.”, “expected, 10” for “expected, 80”, “mat was” for “mat were”, “mats” for “mats of this batch”, “of” for “of diffuser”
# [4] = Evaporation of liquid formulation from bottle with ceramic wick on diffuser; type: physicochemical; settings: equal to 1 gram of mixture, diffuser 125°-150° C.
# Description: PET plastic bottles were then each filled with 24 grams of the above formulation. A plastic insert and ceramic wick were then placed in the opening of the bottle and the bottle was screwed onto a common diffuser. The diffuser was operated at a temperature ranging from 125°-150° C. […] The remainder of the mixture in the bottle was then analyzed by HPLC. […] The bottle was then plugged off and stored for 12 additional hours. The bottle was again screwed onto a common diffuser, and the diffuser was operated at a temperature of 125°-150° C.
# fish = settings: in vivo; cited from earlier work
# mammals [5] = settings: in vivo; cited from earlier work
Compound,vapor pressure [1],toxicity to birds (birds),chronic toxicology findings (mammals [2]),Percentage of Spinosad Evaporated ([3]; diffuser temperature 130° C.),Percentage of Spinosad Evaporated ([3]; diffuser temperature 140° C.),Percentage of Spinosad Evaporated ([3]; diffuser temperature 160° C.),Quantity of Spinosad Remained on mat after 8 h of operation ([3]; diffuser temperature 130° C.),Quantity of Spinosad Remained on mat after 8 h of operation ([3]; diffuser temperature 140° C.),Quantity of Spinosad Remained on mat after 8 h of operation ([3]; diffuser temperature 160° C.),pure spinosad evaporated after 8 hours [4],toxicity to fish (fish),toxicity to mammals (mammals [5])
CC[C@H]1CCC[C@H](O[C@H]2CC[C@H](N(C)C)[C@@H](C)O2)[C@@H](C)C(=O)C2=C[C@@H]3[C@@H](C=C[C@@H]4C[C@@H](O[C@@H]5O[C@@H](C)[C@H](OC)[C@@H](OC)[C@H]5OC)C[C@@H]34)[C@@H]2CC(=O)O1 [spinosyn A],2.4 ×10^−10 mmHg,,,,,,,,,,,
Spinosad,,relatively low,"not carcinogenic, teratogenic, mutagenic, or neurotoxic",75%,85%,98%,20 mgs,12 mgs,2 mgs,20 mgs,only slightly toxic,relatively low
